Our source for the IC50 and Viability values is patent publication US20240409536A1, “COMPOUNDS AND METHODS FOR MODULATING SPLICING” (REMIX THERAPEUTICS INC., priority 2021, published 2024).

The structures appear in SMILES notation. pIC50: −log10 of the molar value. Where a name gives a salt, the structure may show the parent alone. A value given as a limit tells only on which side of the number the result lay.

The test system of one series is SMN2 mRNA. Briefly: Gene panel canonical junction qPCR assay, SMN2 CJ mRNA decrease. Conditions: Homo sapiens, canonical junction qPCR, read-out: SMN2 IC50 (decrease in CJ mRNA levels). It is filed as cell-based, human. A digest of the protocol: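 A673 or K562 cells were treated with compound, and lysates underwent cDNA synthesis and qPCR with a CY5 5′-nuclease probe or primer spanning the canonical exon junction. ΔCt versus GAPDH, GUSB or PPIA was normalized to DMSO (2^(−ΔΔCt)), converted to percentage response and fitted four-parameter logistic for IC50.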
(Real-time PCR tracks product formation cycle by cycle.)

In a further series the test system is K562 cells. The experiment in a line: Cell Titer Glo 2.0 cell viability assay in K562 cells. Conditions: 72 hours.
Another series has as its system HiBiT-tagged MYB protein. Briefly: HiBiT protein abundance assay, MYB (K562 HiBiT knock-in cells). The class given is cell-based, human. Conditions: 24 hours. The procedure, abridged:
(§1)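 Luminescent readout of HiBiT-tagged endogenous protein after lysis, following 24 h compound exposure of knock-in K562 lines at 37 °C. Ten 3-fold concentrations from 10 μM final, DMSO ≤0.25%. Four-parameter logistic fit of normalized response gives concentration halving abundance (IC50).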
A general note: HiBiT is a short tag that completes a luciferase, so light tracks the accessible tagged protein.

For the next series, the system named is HiBiT-tagged HTT protein. The experiment in a line: HiBiT protein abundance assay, HTT (K562 HiBiT knock-in cells). The class given is cell-based, human. Conditions: 24 hours. A digest of the protocol: as §1
For another series, the system named is Target C. Briefly: HiBiT protein abundance assay, Target C (K562 HiBiT knock-in cells). The class given is cell-based, human. Conditions: 24 hours. The procedure, abridged: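 Protein abundance read by HiBiT lytic luminescence after 24 h compound exposure (37 °C) of knock-in K562 cells, 10000 cells/well in IMDM+1% FBS. Dosing: 10 points, 3-fold, top 10 μM final, ≤0.25% DMSO. Four-parameter logistic fit gave concentration reducing abundance to 50% of untreated control.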

As a reminder, the pIC50 is the IC50 on a negative log10 scale, so that one unit is a factor of ten. `CNCC1CCN(c2ccc(C(=O)Nc3cc(F)c4nc(C)cn4c3)c3nccnc23)CC1` [Compound 192, N-{8-fluoro-2-methylimidazo[1,2-a]pyridin-6-yl}-8-{4-[(methylamino)methyl]piperidin-1-yl}quinoxaline-5-carboxamide trifluoroacetate]: the pIC50 is 6.00 to 7.00 in the series on SMN2 mRNA, 5.00 to 6.00 with HiBiT-tagged MYB protein, 5.00 to 6.00 in the series on HiBiT-tagged HTT protein and 5.00 to 6.00 in the series with Target C. For the same molecule, the Viability result in the series with K562 cells is reported as “C (C represents 1000-9999 nM)”.

`CNC1CCN(c2ccc(C(=O)Nc3cc(F)c4nc(C)cn4c3)c3nc(C)ccc23)C1` (stereo not shown) [Compound 196, N-{8-fluoro-2-methylimidazo[1,2-a]pyridin-6-yl}-2-methyl-5-[3-(methylamino)pyrrolidin-1-yl]quinoline-8-carboxamide 2,2,2-trifluoroacetate]: the pIC50 in the series on SMN2 mRNA was > 7.00; in the series with HiBiT-tagged MYB protein it was > 7.00; in the series on HiBiT-tagged HTT protein, 5.00 to 6.00; in the series on Target C, 5.00 to 6.00. Moreover, the Viability result with K562 cells is listed as “A (A represents <100 nM)”.

On to `Cc1cnc2c(N3CCNCC3)ccc(C(=O)Nc3cc(F)c4nc(C)cn4c3)c2n1` [Compound 197, N-{8-fluoro-2-methylimidazo[1,2-a]pyridin-6-yl}-3-methyl-8-(piperazin-1-yl)quinoxaline-5-carboxamide; trifluoroacetic acid], for which the pIC50 is > 7.00 in the series on SMN2 mRNA, > 7.00 with HiBiT-tagged MYB protein, 6.00 to 7.00 in the series with HiBiT-tagged HTT protein and 5.00 to 6.00 in the series with Target C. In addition, the Viability entry with K562 cells is reported as “C (C represents 1000-9999 nM)”.

As for `COCCOc1cc2c(N3CCNCC3)ccc(C(=O)Nc3cc(F)c4nc(C)cn4c3)c2nn1` [Compound 199, N-{8-fluoro-2-methylimidazo[1,2-a]pyridin-6-yl}-3-(2-methoxyethoxy)-5-(piperazin-1-yl)cinnoline-8-carboxamide], the pIC50 with SMN2 mRNA was > 7.00; in the series on HiBiT-tagged MYB protein, > 7.00; in the series on HiBiT-tagged HTT protein, 5.00 to 6.00; with Target C it was 5.00 to 6.00. The Viability result in the series with K562 cells is given as “B (B represents 100-1000 nM)”.

With `Cc1cnc2c(N3CCC(N(C)C)CC3)ccc(C(=O)Nc3cc(F)c4nc(C)cn4c3)c2n1` [Compound 200, 8-[4-(dimethylamino)piperidin-1-yl]-N-{8-fluoro-2-methylimidazo[1,2-a]pyridin-6-yl}-3-methylquinoxaline-5-carboxamide], the pIC50 with SMN2 mRNA is > 7.00; in the series with HiBiT-tagged MYB protein it was > 7.00; in the series with HiBiT-tagged HTT protein, > 7.00; in the series with Target C, 6.00 to 7.00. Also, in the series with K562 cells, the Viability result was “B (B represents 100-1000 nM)”.

Regarding `CNC1CCN(c2ccc(C(=O)Nc3cc(F)c4nc(C)cn4c3)c3nc(OC)cnc23)C1` (stereo not shown) [Compound 202, N-{8-fluoro-2-methylimidazo[1,2-a]pyridin-6-yl}-3-methoxy-8-[3-(methylamino)pyrrolidin-1-yl]quinoxaline-5-carboxamide; bis(trifluoroacetic acid)], the pIC50 with SMN2 mRNA is > 7.00; in the series on HiBiT-tagged MYB protein, > 7.00; with HiBiT-tagged HTT protein, 5.00 to 6.00; in the series with Target C it was 5.00 to 6.00. In addition, in the series on K562 cells, the Viability entry is listed as “A (A represents <100 nM)”.

Take `CN[C@@H]1CCN(c2ccc(C(=O)Nc3cc(F)c4nc(C)cn4c3)c3nc(OC)cnc23)C1` [Compound 204, (R)—N-{8-fluoro-2-methylimidazo[1,2-a]pyridin-6-yl}-3-methoxy-8-[3-(methylamino)pyrrolidin-1-yl]quinoxaline-5-carboxamide; trifluoroacetic acid]: the negative-log IC50 (pIC50) was > 7.00 in the series with SMN2 mRNA, 6.00 to 7.00 in the series on HiBiT-tagged MYB protein, 5.00 to 6.00 in the series with HiBiT-tagged HTT protein and 5.00 to 6.00 with Target C. Besides, in the series with K562 cells, the Viability result is “A (A represents <100 nM)”.

As to `COc1cnc2c(N3C[C@@H](C)N[C@@H](C)C3)ccc(C(=O)Nc3cc(F)c4nc(C)cn4c3)c2n1` [Compound 205, 8-[(3R,5S)-3,5-dimethylpiperazin-1-yl]-N-{8-fluoro-2-methylimidazo[1,2-a]pyridin-6-yl}-3-methoxyquinoxaline-5-carboxamide; trifluoroacetic acid], the pIC50 in the series with SMN2 mRNA is > 7.00; with HiBiT-tagged MYB protein, > 7.00; with HiBiT-tagged HTT protein it was 6.00 to 7.00; with Target C, 6.00 to 7.00. Moreover, the Viability result in the series with K562 cells is “B (B represents 100-1000 nM)”.

`COc1cnc2c(N3CCC(N(C)C)CC3)ccc(C(=O)Nc3cc(F)c4nc(C)cn4c3)c2n1` [Compound 206, 8-[4-(dimethylamino)piperidin-1-yl]-N-{8-fluoro-2-methylimidazo[1,2-a]pyridin-6-yl}-3-methoxyquinoxaline-5-carboxamide; trifluoroacetic acid]: the pIC50 in the series with SMN2 mRNA was > 7.00; in the series on HiBiT-tagged MYB protein, > 7.00; in the series with HiBiT-tagged HTT protein, 6.00 to 7.00; with Target C, 6.00 to 7.00. In addition, the Viability entry in the series on K562 cells was “B (B represents 100-1000 nM)”.

As for `COc1cnc2c(N3CCNCC3)ccc(C(=O)Nc3cc(F)c4nc(C)cn4c3)c2n1` [Compound 207, N-{8-fluoro-2-methylimidazo[1,2-a]pyridin-6-yl}-3-methoxy-8-(piperazin-1-yl)quinoxaline-5-carboxamide; bis(trifluoroacetic acid)], the pIC50 in the series on SMN2 mRNA was > 7.00; with HiBiT-tagged MYB protein it was > 7.00; with HiBiT-tagged HTT protein, 6.00 to 7.00; in the series on Target C, 5.00 to 6.00. In addition, the Viability result in the series with K562 cells is given as “B (B represents 100-1000 nM)”.

As for `Cc1cnc2c(C(=O)Nc3cc(F)c4nc(C)cn4c3)ccc(N3CCC(N(C)C)CC3)c2n1` [Compound 208, 8-[4-(dimethylamino)piperidin-1-yl]-N-{8-fluoro-2-methylimidazo[1,2-a]pyridin-6-yl}-2-methylquinoxaline-5-carboxamide; bis(trifluoroacetic acid)], the pIC50 with SMN2 mRNA is > 7.00; in the series on HiBiT-tagged MYB protein, > 7.00; in the series on HiBiT-tagged HTT protein it was 5.00 to 6.00; in the series on Target C, 5.00 to 6.00. For the same molecule, in the series with K562 cells, the Viability entry is “A (A represents <100 nM)”.

Consider `Cc1ccc2c(N3C[C@@H](C)N[C@@H](C)C3)ccc(C(=O)Nc3cc(F)c4nc(C)cn4c3)c2n1` [Compound 214, 5-[(3R,5S)-3,5-dimethylpiperazin-1-yl]-N-{8-fluoro-2-methylimidazo[1,2-a]pyridin-6-yl}-2-methylquinoline-8-carboxamide], for which the pIC50 was > 7.00 with SMN2 mRNA, > 7.00 in the series with HiBiT-tagged MYB protein, 5.00 to 6.00 in the series with HiBiT-tagged HTT protein and 5.00 to 6.00 with Target C. The Viability entry in the series on K562 cells is “B (B represents 100-1000 nM)”.

Turning to `Cc1ccc2c(N3CCC(N(C)C)CC3)ccc(C(=O)Nc3cc(F)c4nc(C)cn4c3)c2n1` [Compound 215, 5-[4-(dimethylamino)piperidin-1-yl]-N-{8-fluoro-2-methylimidazo[1,2-a]pyridin-6-yl}-2-methylquinoline-8-carboxamide], the pIC50 was > 7.00 in the series with SMN2 mRNA, > 7.00 in the series on HiBiT-tagged MYB protein, 5.00 to 6.00 in the series on HiBiT-tagged HTT protein and 5.00 to 6.00 with Target C. The Viability entry with K562 cells is on record as “B (B represents 100-1000 nM)”.

Turning to `Cc1cnc2c(N3C[C@@H](C)N[C@@H](C)C3)ccc(C(=O)Nc3cc(F)c4nc(C)cn4c3)c2n1` [Compound 216, 8-((3R,5S)-3,5-dimethylpiperazin-1-yl)-N-{8-fluoro-2-methylimidazo[1,2-a]pyridin-6-yl}-3-methylquinoxaline-5-carboxamide], the pIC50 in the series on SMN2 mRNA is > 7.00; with HiBiT-tagged MYB protein it was > 7.00; in the series with HiBiT-tagged HTT protein, 5.00 to 6.00; in the series with Target C, 5.00 to 6.00. In the series with K562 cells, the Viability entry was “C (C represents 1000-9999 nM)”.

`Cc1cn2cc(NC(=O)c3ccc(N4CCNC5(CC5)C4)c4nccnc34)cc(F)c2n1` [Compound 218, 8-{4,7-diazaspiro[2.5]octan-7-yl}-N-{8-fluoro-2-methylimidazo[1,2-a]pyridin-6-yl}quinoxaline-5-carboxamide]: the pIC50 in the series with SMN2 mRNA was > 7.00; in the series with HiBiT-tagged MYB protein, > 7.00; in the series on HiBiT-tagged HTT protein, 5.00 to 6.00; in the series with Target C it was 5.00 to 6.00. Further, the Viability result with K562 cells is recorded as “B (B represents 100-1000 nM)”.

Turning to `Cc1cn2cc(NC(=O)c3ccc(N4CC(C)(C)NC(C)(C)C4)c4nccnc34)cc(F)c2n1` [Compound 219, N-{8-fluoro-2-methylimidazo[1,2-a]pyridin-6-yl}-8-(3,3,5,5-tetramethylpiperazin-1-yl)quinoxaline-5-carboxamide], the pIC50 in the series with SMN2 mRNA was > 7.00; in the series with HiBiT-tagged MYB protein, > 7.00; with HiBiT-tagged HTT protein, 5.00 to 6.00; with Target C, 5.00 to 6.00. Further, the Viability result in the series with K562 cells is on record as “A (A represents <100 nM)”.

In the case of `Cc1cn2cc(NC(=O)c3ccc(N4CCNC(C)(C)C4)c4nccnc34)cc(F)c2n1` [Compound 220, 8-(3,3-dimethylpiperazin-1-yl)-N-{8-fluoro-2-methylimidazo[1,2-a]pyridin-6-yl}quinoxaline-5-carboxamide], the pIC50 in the series on SMN2 mRNA was > 7.00; in the series with HiBiT-tagged MYB protein, > 7.00; in the series with HiBiT-tagged HTT protein it was 5.00 to 6.00; in the series on Target C, 5.00 to 6.00. In addition, the Viability result in the series with K562 cells is reported as “A (A represents <100 nM)”.
